Key:
[1] = molecular target: PI3Kβ(PC-3) (Homo sapiens (Human), UniProt P42338); experiment: Cell activity of PI3K subtypes, AlphaLISA p-AKT (pS473); assay type: cell-based; settings: PC-3 cells, LPA stimulated
From the text: (§1) The following method was used to determine the degree of inhibition of the compounds of the present invention on activity of PI3Kα, PI3Kβ, PI3Kγ, and PI3Kδ kinase in different cells. The AlphaLISA SureFire Ultra p-AKT1/2/3 (pS473) kit (#ALSU-PAKT-B500) of PE company was used in the method. The above kit used AlphaLISA technology, using donor and acceptor beads to detect the interaction of biomolecules, to detect the content of p-AKT (pS473), reflecting the intensity of inhibition of the compounds on PI3Kα, PI3Kβ, PI3Kγ and PI3Kδ at the cell level. For detailed experimental operations, please refer to the kit instructions.
(§2) The experimental procedure was briefly described as follows: the experiment was carried out in a 384-well plate using a Multidrop dispenser (Thermo, #836-4049), using different cells for different PI3K subtypes (PI3Kα: C2C12 cells (myoblasts); PI3Kβ: PC-3 cells (human prostate cancer cells); PI3Kγ: Raw264.7 cells (monocyte macrophages); PI3Kδ: Raji cells (lymphoma cells)). 6 μL of the corresponding cells were transferred to the wells of a 384-well plate. After centrifugation 500 RPM for 30 seconds, the plate was placed in a 37° C., 5% CO2 incubator for 2 hours. The test compound was first dissolved in DMSO to prepare a 10 mM stock solution, which was diluted 4-fold with DMSO. 30 nL was transferred by Echo (Labcyte, #550) to each well (final concentration is 10000 nM-0.2 nM), and incubated for 30 minutes. Then for C2C12 cells used for PI3Kα subtype, 2 uL IGF-1 (R&D, #291-G1-200, final concentration 1200 ng/mL) was added and incubated for 20 minutes. For PC-3 cells used for PI3Kβ subtype, 2 μL LPA (Sigma, #L7260, final concentration 15 ug/mL) was added and incubated for 20 minutes. For Raw264.7 cells used for PI3Kγ subtype, 2 uL C5a (Biotang, #RPR9899, final concentration 80 ng/mL) was added and incubated for 5 minutes. For Raji cells used for PI3Kδ subtype, 2 μL IgM (Jackson ImmunoResearch, #109-006-129, final concentration 3 ug/mL) was added and incubated for 10 minutes. After the incubation, AlphaLISA SureFire Ultra p-AKT1/2/3(pS473) kit was used to determine the AlphaLISA signal. The kit determination method was briefly described as follows: 20 μL Lysis Buffer was used to lyse the cells for 10 minutes. Then 5 uL acceptor mix and 5 uL donor mix were added to a 384-well plate. The plate was incubated with shaking at room temperature for 2 hours. Envision (PE, #2104) was used to read AlphaLISA signal. By comparing with the signal intensity ratio of the control group (0.5% DMSO), the percentage inhibition rate of the compound at each concentration was calculated. The GraphPad Prism 5 software was used to perform nonlinear regression analysis of the compound concentration logarithmic value vs. the inhibition rate to obtain the IC50 values of the compounds, shown in Table 3.

[2] = molecular target: PI3Kγ(Raw264.7) (Mus musculus (Mouse), UniProt Q9JHG7); experiment: as above; assay type: cell-based
From the text: as §1, §2

[3] = molecular target: PI3Kδ(Raji) (Homo sapiens (Human), UniProt O00329); experiment: as above; assay type: cell-based; settings: Raji cells, IgM stimulated
From the text: as §1, §2

[4] = Metabolic stability in liver microsomes; assay type: in vitro ADME; settings: human liver microsomes 0.5 mg/mL, 1 μM compound, NADPH 1 mM; read-out: half-life period/(T1/2, min)
Experimental: The test compound was co-incubated with human liver microsomes, and coenzyme NADPH was added to initiate the reaction. At 0, 5, 15, 30 and 60 minutes, 20 μL of incubation solution was taken out and transferred to 200 μL of acetonitrile containing internal standard to stop the reaction. After protein precipitation, centrifugation was performed at 3,700 rpm for 10 minutes and the supernatant was taken. The supernatant was diluted 1:1 with water and analyzed by LC-MS/MS method. According to the elimination half-life of the test compound in the incubation system, the in vitro intrinsic clearance rate was calculated. Midazolam was used as the internal reference compound and incubated for two aliquots in parallel.
The ratio of peak area of the analyte/internal standard (Aanalyte/AIS) was obtained by the instrument. The remaining percentage (% Control) was calculated from the ratio of Aanalyte/AIS in the non-zero time point sample to the zero time point sample. Ln (% Control) versus incubation time was plotted and a linear fit was performed. The clearance constant (k, min^−1), the clearance half-life (T1/2, min) and the in vitro intrinsic clearance rate (CLint, mL·min^−1·mg^−1 proteins) of the test compound were calculated by the following equations.
Cprotein(mg·mL^−1) refers to the concentration of microsomal protein in the incubation system.

[5] = Oral pharmacokinetics in SD rats; assay type: in vivo; settings: male, rat, plasma, Oral (5 mg/kg)
Experimental: Using SD rats as test animals, the rats were intragastrically administrated with the compound of the present invention. LC/MS/MS method was used to determine the drug concentration in the plasma at different times to study the pharmacokinetic characteristics of the compound of the present invention in rats.
An appropriate amount of the compound to be tested was weighed, and 0.5% sodium carboxymethylcellulose (containing 0.05% Tween80) was added. The mixture was vortexed, and sonicated so that the solid was ultrasonically dispersed uniformly to obtain a suspension. 100 μL×2 of the filtered preparation were aspirated, and placed in 1.5-mL EP tubes, stored at […]. The concentration of the preparation was 0.5 mg/mL.
Nine healthy adult male SD rats were fasted overnight and then intragastrically administered (dosage of administration was 5 mg/kg), and fed 4 hours after administration.
About 0.2 mL of blood was collected from the jugular vein at 0.083 hours, 0.25 hours, 0.5 hours, 1 hour, 2 hours, 4 hours, 8 hours, 12 hours, and 24 hours after administration, and heparin sodium was used for anticoagulation. The collected blood samples were placed on ice and centrifuged to separate the plasma (centrifugation conditions: 1500 g, 10 minutes). The collected plasma was stored at −40 to −20° C. before analysis. The LC-MS/MS method was used to determine the content of the test compound in the plasma of SD rats after intragastric administration of different compounds.

[6] = molecular target: recombinant human PI3Kβ (Homo sapiens (Human), UniProt P42338); experiment: Inhibitory activity on PI3K kinase (ADP-Glo Kinase Assay)
From the text: (§3) The following method is used to determine the degree of inhibition of recombinant human PI3Kα, PI3Kβ, PI3Kγ and PI3Kδ kinase activity by the compounds of the present invention under in vitro conditions. Promega's ADP-Glo Kinase Assay Kit (Cat. No. V9102) was used in this method. The above kit was a luminescence kinase detection kit, which was used to detect the ADP content produced by the kinase reaction. The ADP content was positively correlated with the kinase activity. By measuring the ADP content, the inhibition of the compound on the activity of PI3Kα, PI3Kβ, PI3Kγ and PI3Kδ kinases was reflected. […] Recombinant human PI3Kα, PI3Kγ, and PI3Kδ were purchased from Invitrogen, and PI3Kβ was purchased from Promega (category numbers were PI3Kα: PV4788; PI3Kβ: V1751; PI3Kγ: PV4786 and PI3Kδ: PV6451 separately).

[7] = molecular target: recombinant human PI3Kδ (Homo sapiens (Human), UniProt O00329); experiment: as above
Sequence of recombinant human PI3Kδ (O00329 whole entry): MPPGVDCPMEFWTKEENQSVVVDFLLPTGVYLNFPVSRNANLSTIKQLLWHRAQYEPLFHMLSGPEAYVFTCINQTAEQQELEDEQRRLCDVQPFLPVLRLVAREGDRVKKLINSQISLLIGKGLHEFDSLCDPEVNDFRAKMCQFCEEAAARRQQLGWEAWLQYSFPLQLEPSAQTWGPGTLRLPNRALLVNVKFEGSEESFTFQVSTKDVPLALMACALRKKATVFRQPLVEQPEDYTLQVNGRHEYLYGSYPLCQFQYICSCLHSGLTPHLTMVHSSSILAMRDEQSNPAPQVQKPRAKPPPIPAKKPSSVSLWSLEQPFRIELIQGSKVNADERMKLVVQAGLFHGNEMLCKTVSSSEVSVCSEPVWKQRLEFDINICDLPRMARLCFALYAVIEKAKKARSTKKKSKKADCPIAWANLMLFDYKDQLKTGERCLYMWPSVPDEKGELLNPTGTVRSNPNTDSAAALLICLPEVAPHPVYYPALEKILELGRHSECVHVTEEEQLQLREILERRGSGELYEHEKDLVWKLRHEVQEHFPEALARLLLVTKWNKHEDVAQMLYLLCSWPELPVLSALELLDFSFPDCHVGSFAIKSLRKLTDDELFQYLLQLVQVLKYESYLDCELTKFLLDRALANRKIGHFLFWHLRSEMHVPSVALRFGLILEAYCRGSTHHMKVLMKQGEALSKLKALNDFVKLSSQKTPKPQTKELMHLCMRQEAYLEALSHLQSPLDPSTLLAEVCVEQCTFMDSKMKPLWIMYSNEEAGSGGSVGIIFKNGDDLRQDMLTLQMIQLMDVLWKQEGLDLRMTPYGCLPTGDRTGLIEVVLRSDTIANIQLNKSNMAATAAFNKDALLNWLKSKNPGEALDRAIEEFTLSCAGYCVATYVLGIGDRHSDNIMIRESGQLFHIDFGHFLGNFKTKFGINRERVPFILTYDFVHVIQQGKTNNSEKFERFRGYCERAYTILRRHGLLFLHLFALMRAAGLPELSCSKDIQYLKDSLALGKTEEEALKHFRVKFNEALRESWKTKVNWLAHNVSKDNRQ
Sequence of recombinant human PI3Kδ (P27986 whole entry partner): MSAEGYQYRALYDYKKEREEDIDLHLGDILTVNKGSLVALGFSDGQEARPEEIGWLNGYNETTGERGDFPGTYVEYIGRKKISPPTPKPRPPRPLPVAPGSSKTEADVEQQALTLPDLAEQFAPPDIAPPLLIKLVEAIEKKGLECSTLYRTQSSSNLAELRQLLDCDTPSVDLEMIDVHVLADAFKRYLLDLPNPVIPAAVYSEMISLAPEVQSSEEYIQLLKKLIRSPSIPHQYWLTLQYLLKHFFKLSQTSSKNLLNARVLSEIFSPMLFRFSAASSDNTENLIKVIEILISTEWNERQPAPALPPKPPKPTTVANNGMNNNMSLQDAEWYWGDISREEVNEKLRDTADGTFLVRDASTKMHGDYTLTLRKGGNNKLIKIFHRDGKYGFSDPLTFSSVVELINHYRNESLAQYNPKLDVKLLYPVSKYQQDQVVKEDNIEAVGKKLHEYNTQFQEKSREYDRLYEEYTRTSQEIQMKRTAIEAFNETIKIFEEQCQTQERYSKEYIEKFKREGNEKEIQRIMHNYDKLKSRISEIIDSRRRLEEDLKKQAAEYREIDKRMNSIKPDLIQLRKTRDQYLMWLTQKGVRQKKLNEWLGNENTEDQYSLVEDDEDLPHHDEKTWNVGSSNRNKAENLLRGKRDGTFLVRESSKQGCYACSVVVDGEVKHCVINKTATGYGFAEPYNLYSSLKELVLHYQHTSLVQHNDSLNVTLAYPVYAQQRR
From the text: as §3

Sequence of PI3Kγ(Raw264.7) (Q9JHG7 whole entry): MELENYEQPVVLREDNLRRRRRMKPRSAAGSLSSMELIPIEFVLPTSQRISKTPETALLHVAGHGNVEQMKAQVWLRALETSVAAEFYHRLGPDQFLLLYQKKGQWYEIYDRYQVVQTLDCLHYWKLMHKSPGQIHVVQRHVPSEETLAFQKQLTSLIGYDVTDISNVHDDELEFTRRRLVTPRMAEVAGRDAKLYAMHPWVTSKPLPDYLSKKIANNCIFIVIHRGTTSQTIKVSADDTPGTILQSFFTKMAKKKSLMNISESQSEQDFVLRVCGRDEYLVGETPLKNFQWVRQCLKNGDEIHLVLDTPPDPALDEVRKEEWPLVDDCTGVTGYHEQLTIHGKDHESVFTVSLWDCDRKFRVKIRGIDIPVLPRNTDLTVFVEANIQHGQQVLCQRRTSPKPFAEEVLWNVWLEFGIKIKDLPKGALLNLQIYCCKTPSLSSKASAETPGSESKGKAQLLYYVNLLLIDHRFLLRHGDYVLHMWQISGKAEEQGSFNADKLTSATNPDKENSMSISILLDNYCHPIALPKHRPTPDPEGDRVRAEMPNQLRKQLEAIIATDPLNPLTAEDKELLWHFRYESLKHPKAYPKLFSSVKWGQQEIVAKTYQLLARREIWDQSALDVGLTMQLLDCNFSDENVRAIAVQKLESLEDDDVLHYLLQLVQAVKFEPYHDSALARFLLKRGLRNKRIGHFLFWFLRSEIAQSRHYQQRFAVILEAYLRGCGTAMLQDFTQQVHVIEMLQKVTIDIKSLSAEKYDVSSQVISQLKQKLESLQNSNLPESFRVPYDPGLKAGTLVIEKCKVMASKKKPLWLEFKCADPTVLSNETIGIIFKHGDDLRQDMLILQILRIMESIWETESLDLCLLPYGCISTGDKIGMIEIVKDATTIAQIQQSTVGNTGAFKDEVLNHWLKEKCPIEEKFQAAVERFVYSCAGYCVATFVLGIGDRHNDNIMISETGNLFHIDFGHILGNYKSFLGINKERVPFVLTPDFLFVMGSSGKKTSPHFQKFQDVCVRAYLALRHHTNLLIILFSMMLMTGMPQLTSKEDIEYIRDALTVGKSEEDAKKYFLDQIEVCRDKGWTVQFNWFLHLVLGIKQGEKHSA
Sequence of PI3Kγ(Raw264.7) (Q5SW28 whole entry partner): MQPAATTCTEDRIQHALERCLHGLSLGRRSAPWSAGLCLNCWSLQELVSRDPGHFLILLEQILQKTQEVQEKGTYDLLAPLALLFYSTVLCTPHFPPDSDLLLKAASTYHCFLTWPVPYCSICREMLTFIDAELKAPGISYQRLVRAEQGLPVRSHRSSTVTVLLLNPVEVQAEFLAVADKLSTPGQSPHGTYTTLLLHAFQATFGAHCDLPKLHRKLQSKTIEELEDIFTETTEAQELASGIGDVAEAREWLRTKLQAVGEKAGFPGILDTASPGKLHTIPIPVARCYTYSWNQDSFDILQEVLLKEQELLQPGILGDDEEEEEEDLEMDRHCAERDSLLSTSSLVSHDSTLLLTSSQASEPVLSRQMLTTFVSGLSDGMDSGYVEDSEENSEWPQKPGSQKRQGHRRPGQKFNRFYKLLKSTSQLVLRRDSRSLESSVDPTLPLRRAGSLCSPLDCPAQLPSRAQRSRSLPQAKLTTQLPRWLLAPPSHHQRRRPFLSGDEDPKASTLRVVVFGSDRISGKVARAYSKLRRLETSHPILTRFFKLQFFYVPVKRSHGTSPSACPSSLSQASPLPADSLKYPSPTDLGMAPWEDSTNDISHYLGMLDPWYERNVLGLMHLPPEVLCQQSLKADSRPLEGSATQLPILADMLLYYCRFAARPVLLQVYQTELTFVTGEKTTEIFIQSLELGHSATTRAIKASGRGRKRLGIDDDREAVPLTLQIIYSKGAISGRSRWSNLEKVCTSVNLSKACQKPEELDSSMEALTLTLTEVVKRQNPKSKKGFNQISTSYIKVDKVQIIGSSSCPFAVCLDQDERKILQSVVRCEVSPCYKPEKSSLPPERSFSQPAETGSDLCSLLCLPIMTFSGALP
Sequence of PI3Kδ(Raji) (O00329 whole entry): as the sequence (O00329 whole entry) above
Sequence of PI3Kδ(Raji) (P27986 whole entry partner): as the sequence (P27986 whole entry partner) above
Sequence of recombinant human PI3Kβ (P42338 whole entry): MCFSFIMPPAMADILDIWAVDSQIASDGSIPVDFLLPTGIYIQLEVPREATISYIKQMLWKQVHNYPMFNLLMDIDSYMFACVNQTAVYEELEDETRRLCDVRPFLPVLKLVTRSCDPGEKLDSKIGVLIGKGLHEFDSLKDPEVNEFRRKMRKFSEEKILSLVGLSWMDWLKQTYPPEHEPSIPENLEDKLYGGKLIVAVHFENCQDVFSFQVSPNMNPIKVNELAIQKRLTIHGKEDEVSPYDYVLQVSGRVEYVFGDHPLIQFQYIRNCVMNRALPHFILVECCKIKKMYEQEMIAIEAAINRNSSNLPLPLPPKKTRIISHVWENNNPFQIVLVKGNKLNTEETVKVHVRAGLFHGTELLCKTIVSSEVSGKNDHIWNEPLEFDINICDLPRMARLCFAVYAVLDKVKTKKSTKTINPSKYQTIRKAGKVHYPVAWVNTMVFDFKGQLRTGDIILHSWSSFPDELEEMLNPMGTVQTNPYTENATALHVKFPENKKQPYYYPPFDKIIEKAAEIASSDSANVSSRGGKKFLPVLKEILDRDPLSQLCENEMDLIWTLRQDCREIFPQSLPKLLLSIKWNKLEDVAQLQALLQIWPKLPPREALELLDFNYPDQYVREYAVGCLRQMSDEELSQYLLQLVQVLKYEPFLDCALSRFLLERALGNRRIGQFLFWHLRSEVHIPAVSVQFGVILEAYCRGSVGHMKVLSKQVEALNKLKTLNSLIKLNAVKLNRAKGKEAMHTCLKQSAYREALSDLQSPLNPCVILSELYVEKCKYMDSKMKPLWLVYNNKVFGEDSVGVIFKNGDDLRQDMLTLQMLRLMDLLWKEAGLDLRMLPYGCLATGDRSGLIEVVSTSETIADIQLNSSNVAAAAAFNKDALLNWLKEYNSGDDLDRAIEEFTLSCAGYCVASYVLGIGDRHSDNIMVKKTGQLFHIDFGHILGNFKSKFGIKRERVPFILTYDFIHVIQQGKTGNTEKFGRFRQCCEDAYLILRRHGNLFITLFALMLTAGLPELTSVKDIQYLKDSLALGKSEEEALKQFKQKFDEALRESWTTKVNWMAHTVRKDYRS
Sequence of recombinant human PI3Kβ (P27986 whole entry partner): as the sequence (P27986 whole entry partner) above
Sequence of PI3Kβ(PC-3) (P42338 whole entry): as the sequence (P42338 whole entry) above
Sequence of PI3Kβ(PC-3) (P27986 whole entry partner): as the sequence (P27986 whole entry partner) above

SMILES: C[C@H](NC(=O)c1c(N)nn2cccnc12)c1nc2cccc(C#Cc3cnn(C4CC4)c3)c2c(=O)n1-c1ccccc1 [Example 2, (S)-2-amino-N-(1-(5-((1-cyclopropyl-1H-pyrazol-4-yl)ethynyl)-4-oxo-3-phenyl-3,4-dihydroquinazolin-2-yl)ethyl)pyrazolo[1,5-a]pyrimidine-3-carboxamide]
- IC50 [1]: 878 nM
- IC50 ([2]; Raw264.7 cells, C5a stimulated, p-AKT (pS473)): 3.42 nM
- IC50 (PI3Kα)/IC50(PI3Kγ) ([2]; cell selectivity, C2C12 vs Raw264.7): 1394
- IC50 (PI3Kβ)/IC50(PI3Kγ) ([2]; cell selectivity, PC-3 vs Raw264.7): 257
- IC50 (PI3Kδ)/IC50(PI3Kγ) ([2]; cell selectivity, Raji vs Raw264.7): 104
- IC50 [3]: 355 nM
- half-life at 1 μM [4]: 233 min
- AUC(0-inf) ([5]; read-out: Area under the curve AUC0-∞): 11000 ng·h/mL
- bioavailability ([5]; read-out: Bioavailability F): 66%
- half-life ([5]; read-out: Half-life period T1/2 (converted)): 4.1 h
- Cmax ([5]; read-out: Plasma concentration Cmax): 1160 ng/mL
- IC50 [6]: 466 nM
- IC50 [7]: 191 nM

— patent publication US12447151B2, “Alkyne derivative, preparation method for same, and uses thereof” (ZHEJIANG HISUN PHARMACEUTICAL CO., LTD., priority 2019, dated 2025)
